Measurements reported in patent US8309552B2, “Immunomodulating heterocyclic compounds” (Medigene AG, priority 2003, dated 2012).
pEC50, pKd: −log10 of the molar value. Where two headings read alike, the source gives them in different places. Blank lines part the entries; values can stand above or below the compound they belong to.

How the values were obtained:
CD80-CD28 interaction = target: T1, CD80-CD28 interaction (Homo sapiens, UniProt P33681); experiment: Homogenous Time Resolved Fluorescence (HTRF) assay, cell free; assay type: binding; conditions: 4 hours at room temperature
T1 sequence (P33681 35-242 limits assumed): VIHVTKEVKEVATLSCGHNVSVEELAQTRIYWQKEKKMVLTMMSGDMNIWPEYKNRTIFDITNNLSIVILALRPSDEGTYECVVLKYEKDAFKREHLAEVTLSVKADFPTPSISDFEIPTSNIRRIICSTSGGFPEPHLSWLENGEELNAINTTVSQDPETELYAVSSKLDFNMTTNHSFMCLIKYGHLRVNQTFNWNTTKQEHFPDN
Outline: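 In pH7.8 Tris-HCl/NaCl buffer with 0.1% BSA, a 100 μM-1.7 nM compound series was incubated for 4 h at room temperature with CD28 and CD80 fusions carrying europium and APC via linker antibodies. Time-resolved signals at 665 and 615 nm were read after 340 nm excitation; a C215 Fab swap defined background. EC50 given as banded classes.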

[1] = system: production of Interleukin-2 (IL-2) by Human Jurkat T Cells; experiment: Inhibition of production of interleukin-2 (IL-2) by human Jurkat T cells (Raji/Jurkat co-culture, anti-CD3, IL-2 ELISA); assay type: cell-based; conditions: for inhibition at 10 µM: Compound Concentration 10 μM
Protocol: • Collins A V et al. (2002) Immunity 17, 201-210 “The interaction properties of costimulatory molecules revisited” Inhibition of Production of Interleukin-2 (IL-2) by Human Jurkat T Cells. Method
Human Raji cells were dispensed at a concentration of 2×10^5 cells per well in RPMI-1640 medium supplemented with 10% fetal calf serum, 1% penicillin/streptomycin, 1% glutamine (RPMI medium) in a 96-well round bottom microtitre plate. Compounds under investigation (dissolved in 100% DMSO) were diluted to eight-fold the desired final concentration in RPMI medium and added to the required final concentration for a total volume of 200 μl per well. After 20 minutes incubation at 37° C., Jurkat T cells were added at a concentration of 2×10^5 cells per well. Monoclonal antibody to CD3 (UCHT1, R&D Systems) was added to the cultures at a final concentration of 1 μg per ml, and where indicated, monoclonal antibody to CD28 (CD28.2, BD-Pharmingen) was also added at a concentration of 2.5 μg per ml. Cells were cultured at 37° C. for 5 hours, after which the plates were centrifuged and the supernatants harvested for IL-2 ELISA assay using the IL-2 Eli-pair kit (DIACLONE Research, Besancon, France) according to the manufacturers instructions.

[2] = target: T2, Biotinylated human CD80 (hCD80-BT) (Homo sapiens, UniProt P33681); experiment: BIAcore biomolecular interaction analysis, binding to immobilised hCD80-BT; set-up: off-rate on CD80: unit not given here; conditions: BIAcore S51, immobilised hCD80-BT
T2 construct: biotin (biotinylated)
T2 sequence (P33681 35-242 limits assumed): T1 sequence (P33681 35-242 limits assumed)
From the text: The Use of BIAcore Biomolecular Interaction Analysis
Biotinylated human CD80 (hCD80-BT) is a recombinant soluble form of a membrane bound receptor molecule (CD80) which binds to CD28 to initiate T cell activation. The interaction between CD80 and CD28 has been extensively investigated (Collins et al, 2002). Biotinlyated human HLA-A2-tax is the recombinant soluble form of a membrane bound receptor molecule that has been used in this example as a control protein, and is not expected to interact with the compounds.
The BIAcore S51™ system was used for screening the compounds of Examples 1-4 above. A series S sensor chip CM5 was docked onto the BIAcore S51™. Streptavidin was coupled to the carboxymethyl surface using standard amine coupling. The chip surface was activated with 0.2M EDC/0.05M NHS, followed by binding of streptavidin (0.25 mg/ml in 10 mM sodium acetate pH 5.0) and saturation of unoccupied sites with […].
The BIAcore S51 sensor chip has two separate sensor spots for immobilisation of proteins. hCD80-BT was immobilised on the streptavidin-coated surface of one sensor spot until a response of approximately 3000 RU was observed. A protein to control for non-specific binding of the compound was immobilised on a second sensor spot. The control protein used for these experiments was a biotinylated, soluble form of the human HLA protein.
Dilution series of compounds (1000 nM-0.05 nM) were prepared in running buffer (10 mM, pH 7.4, 150 mM NaCl, 0.005% P20; 5% DMSO).
BIAcore S51™ was run at a flow rate of 30 μl/min using running buffer. Compounds and DMSO standard solutions for correction of data for solvent effects were injected. Data were recorded automatically and were analysed using BIAcore S51 Evaluation software.

[3] = target: T2, Biotinylated human CD80 (hCD80-BT); conditions: CD80/CD28 interaction, cited from earlier work
[4] = cell-free HTRF, concentration series 100 μM-1.7 nM, read-out: Activity (EC50 in the HTRF assay)
[5] = read-out: Percentage Inhibition (relative to DMSO = 0%)
[6] = cell free HTRF assay, concentration series 100 μM-1.7 nM, read-out: Activity (EC50 in the HTRF assay)
[7] = inhibition of the CD80-CD28 interaction, read-out: EC50 activity in the HTRF assay
[8] = cell-free HTRF, compound concentration series 100 μM-1.7 nM, read-out: Activity (EC50 in the HTRF assay)
[9] = Compound Concentration 30 μM, read-out: Percentage Inhibition (relative to DMSO = 0%)

pEC50 (CD80-CD28 interaction; [4]): > 6.00
Compound: CN(C)C1CCC(NC(=O)c2ccc(-n3[nH]c4c(nnc5c(F)cccc54)c3=O)cc2)CC1 (stereo not shown) [Example 472]
inhibition at 10 µM [1, 5]: 58.4%

pEC50 (CD80-CD28 interaction; [4]): > 6.00
Compound: CCN1CCC(NC(=O)c2ccc(-n3[nH]c4c(nnc5c(F)cccc54)c3=O)cc2)CC1 [Example 453]
inhibition at 10 µM [1, 5]: 55.7%

pEC50 (CD80-CD28 interaction; [6]): > 6.00
Compound: O=C(NCCCNC1CCCCC1)c1ccc(-n2[nH]c3c(nnc4c(F)cccc43)c2=O)cc1 [Example 235]
inhibition at 10 µM [1, 5]: 59.3%

pEC50 (CD80-CD28 interaction; [6]): > 6.00
Compound: O=C(NCCCN1CCOCC1)c1ccc(-n2[nH]c3c(nnc4c(F)cccc43)c2=O)cc1 [Example 350]
inhibition at 10 µM [1, 5]: 74.2%

Compound: O=C(NC1CN2CCC1CC2)c1ccc(-n2[nH]c3c(nnc4c(F)cccc43)c2=O)cc1 (stereo not shown) [Example 353]
pEC50 (CD80-CD28 interaction; [6]): > 6.00 | inhibition at 10 µM [1, 5]: 77.4%

pEC50 (CD80-CD28 interaction; [6]): > 6.00
Compound: CN1CCC(NC(=O)c2ccc(-n3[nH]c4c(nnc5c(F)cccc54)c3=O)cc2)CC1 [Example 349]
inhibition at 10 µM [1, 5]: 79.5%

pKd [2]: > 7.00 | off-rate on CD80 [2]: 2×10^−2 | pEC50 (CD80-CD28 interaction; [7]): > 6.00
Compound: O=C(NCCCCN1CCCC1)c1ccc(-n2[nH]c3c(nnc4c(F)cccc43)c2=O)cc1 [Example 6, 4-(6-fluoro-3-oxo-1,3-dihydro-2H-pyrazolo[4,3-c]cinnolin-2-yl)-N-(pyrrolidin-1-yl-butyl)benzamide]

pEC50 (CD80-CD28 interaction; [4]): > 6.00
Compound: CN(CCCCNC(=O)c1ccc(-n2[nH]c3c(nnc4c(F)cccc43)c2=O)cc1)C(C)(C)C [Example 478]
inhibition at 10 µM [1, 5]: 56%

pEC50 (CD80-CD28 interaction; [4]): > 6.00
Compound: N#CCNC(=O)c1ccc(-n2[nH]c3c(nnc4c(F)cccc43)c2=O)cc1 [Example 482]
inhibition at 10 µM [1, 5]: 39.2%

pEC50 (CD80-CD28 interaction; [6]): > 6.00
Compound: O=C(NCC(F)F)c1ccc(-n2[nH]c3c(nnc4c(F)cccc43)c2=O)cc1 [Example 376]
inhibition at 10 µM [1, 5]: 56.7%

pKd [2]: > 7.00 | off-rate on CD80 [2]: 2×10^−2 | pEC50 (CD80-CD28 interaction; [7]): > 6.00
Compound: O=C(NCCCNC1CCCCC1)c1ccc(-n2[nH]c3c(nnc4ccccc43)c2=O)cc1 [Example 4, N-[(cyclohexylamino)propyl]-4-(3-oxo-1,3-dihydro-2H-pyrazolo[4,3-c]cinnolin-2-yl)benzamide]

pKd [2]: > 7.00 | off-rate on CD80 [2]: 2×10^−2 | pEC50 (CD80-CD28 interaction; [7]): > 6.00
Compound: CN(C)CCCNC(=O)c1ccc(-n2[nH]c3c(nnc4ccccc43)c2=O)cc1 [Example 2, N-[(dimethylamino)propyl]-4-(3-oxo-1,3-dihydro-2H-pyrazolo[4,3-c]cinnolin-2-yl)benzamide]
inhibition at 30 µM ([1]; at 30 μM, read-out: inhibition of IL-2 production): 65%

pEC50 (CD80-CD28 interaction; [8]): > 6.00
Compound: CC(C)OCCCNC(=O)c1ccc(-n2[nH]c3c(nnc4ccccc43)c2=O)cc1 [Example 53]
inhibition at 30 µM [1, 9]: 63.8%

pEC50 (CD80-CD28 interaction; [8]): > 6.00
Compound: CN1C(C)(C)CC(NC(=O)c2ccc(-n3[nH]c4c(nnc5ccccc54)c3=O)cc2)CC1(C)C [Example 68]
inhibition at 10 µM [1, 5]: 71.7%

pKd [2]: > 7.00 | off-rate on CD80 [2]: 2×10^−2 | pEC50 (CD80-CD28 interaction; [7]): > 6.00
Compound: CN1C(C)(C)CC(NC(=O)c2ccc(-n3[nH]c4c(nnc5c(F)cccc54)c3=O)cc2)CC1(C)C [Example 7, 4-(6-fluoro-3-oxo-1,3-dihydro-2H-pyrazolo[4,3-c]cinnolin-2-yl)-n-(1,2,2,6,6-pentamethylpiperidine-4-yl)benzamide]

pEC50 (CD80-CD28 interaction; [6]): > 6.00
Compound: O=C(NCCCNC1CCCCC1)c1ccc(-n2[nH]c3c(nnc4c(F)ccc(F)c43)c2=O)cc1 [Example 429]
inhibition at 10 µM [1, 5]: 58.8%

pKd [2]: > 7.00 | off-rate on CD80 [2]: 2×10^−2 | pEC50 (CD80-CD28 interaction; [7]): > 6.00
Compound: O=C(NCc1ccccc1)c1ccc(-n2[nH]c3c(nnc4ccccc43)c2=O)cc1 [Example 3, N-benzyl-4-(3-oxo-1,3-dihydro-2H-pyrazolo[4,3-c]cinnolin-2-yl)benzamide]

pEC50 (CD80-CD28 interaction; [8]): > 6.00
Compound: CCN1CCCC1CNC(=O)Nc1ccc(-n2[nH]c3c(nnc4ccccc43)c2=O)cc1 (stereo not shown) [Example 162]
inhibition at 30 µM [1, 9]: 54.4%

Compound: CD28: "the endogenous protein ligand (CD28)" of CD80; "CD28 on T-cells"
off-rate of CD80 interaction with endogenous protein ligand [3]: greater than 0.2 s^−1 | pKd ([3]; read-out: KD of CD80 interaction with endogenous protein ligand): 5.32

pEC50 (CD80-CD28 interaction; [4]): > 6.00
Compound: CCCNCCCNC(=O)c1ccc(-n2[nH]c3c(nnc4c(F)cccc43)c2=O)cc1 [Example 442]
inhibition at 10 µM [1, 5]: 58.9%
